Data taken from US20060205071A1, “Methods for ex-vivo expanding stem/progenitor cells” (priority 2003, published 2006).
“Also recorded” adds a separate entry of the source.

Experiments:
[1] = tested on: Hematopoietic stem/progenitor cells isolated from umbilical cord blood; test: Long Term Culture-Colony Forming Cell (LTC-CFC) assay of bag-cultured HSC; assay type: cell-based, human
Protocol: FIGS. 1A-1C are a graphic representation of the ex-vivo expansion and inhibition of differentiation of stem cells in a static bioreactor. Hematopoietic stem/progenitor cells isolated from umbilical cord blood (UCB) mononuclear cells by magnetic activated cell sorting (MACS technology, Milteny, Bergisch-Gladbach, GmbH) were seeded in static bioreactors (gas permeable culture bags) at concentrations of 1×10^4 cells/ml in MEM-alpha with 10% Fetal Calf Serum (FCS) containing 50 ng/ml of the following cytokines: SCF, TPO, Flt-3, IL-6, with (TEPA) or without (control) added copper chelator tetraethylenepentamine (TEPA, Aldrich, Milwaukee Wis., USA) (5 μM), and incubated for at least three weeks in a 5% CO2 humidified incubator. […] CFUc frequency was calculated as number of CFUc per number of cells.
Self-Renewal Potential Evaluations: The self-renewal potential of stem cells was determined in vitro by long-term colony formation. […] The resulting colonies were scored after two weeks of incubation at 37° C. in a humidified atmosphere of 5% CO2 in air. […]
Calculations: Ex vivo expansion of TNC, CD133, CD133+CD34− cells and CFUc are reported either as cumulative numbers; number of cells per ml multiply by the final culture volume, or as fold-expansion; cumulative numbers divided by initial seeding cell number. CFUc frequency is calculated as number of colonies divided by cell number. […]

[2] = tested on: cord-blood-derived, bone marrow-derived, and peripheral blood derived stem and progenitor cells; conditions: grown without a feeder layer; cited from earlier work
[3] = tested on: Hematopoietic stem/progenitor cells isolated from umbilical cord blood; test: Ex vivo expansion of HSC with copper chelator in a gas permeable culture bag (static bioreactor); assay type: cell-based, human
Protocol: Hematopoietic stem/progenitor cells isolated from umbilical cord blood (UCB) mononuclear cells by magnetic activated cell sorting (MACS technology, Milteny, Bergisch-Gladbach, GmbH) were seeded in static bioreactors (gas permeable culture bags) at concentrations of 1×10^4 cells/ml in MEM-alpha with 10% Fetal Calf Serum (FCS) containing 50 ng/ml of the following cytokines: SCF, TPO, Flt-3, IL-6, with (TEPA) or without (control) added copper chelator tetraethylenepentamine (TEPA, Aldrich, Milwaukee Wis., USA) (5 μM), and incubated for at least three weeks in a 5% CO2 humidified incubator. […] Cell Cultures of Human Hematopoietic Stem/Progenitor Cells: Human umbilical cord blood cells were obtained from umbilical cord blood after normal full-term delivery (informed consent was given). MPB, or BM were obtained from donations (informed consent was given). Samples were either used fresh or collected and frozen according to well known cord blood cryopreservation protocol (Rubinstein et al. 1995) within 24 h postpartum for UCB or according to common practice regarding MPB and BM. Prior to cryopreservation, blood was sedimented for 30 minutes on […] Starch (hydroxyethyl starch) to remove most RBC. Prior to their use, the cells were thawed in Dextran buffer (Sigma, St. Louis, Mo., USA) containing 2.5% human serum albumin (HSA) (Bayer Corp. Elkhart, Ind., USA) and processed as described herein below. Following thawing, where indicated, the leukocyte-rich fraction was harvested and layered on Ficoll-Hypaque gradient (1.077 g/mL; Sigma Inc, St Louis Mo., USA), and centrifuged at 400X g for 30 minutes. The mononuclear cell fraction in the interface layer was then collected, washed three times, and re-suspended in phosphate-buffered saline (PBS) (Biological Industries, Bet HaEmek, Israel) containing 0.5% human serum albumin (HSA) (Bayer Corp. Elkhart, Ind., USA). The CD133^+ cell fraction was purified as follows: Either the mononuclear cell fraction was subjected to two cycles of immuno-magnetic separation using the “MiniMACS CD133 stem cell isolation kit” (Miltenyi Biotec, Auburn, Calif.) or the unfractionated preparation was isolated on the CliniMACS device using CD133^+ CliniMACS (Miltenyi Biotec, Auburn, Calif.) reagent, accordingly, following the manufacturer's recommendations (in the latter, the Ficoll-Hypaque gradient stage was omitted). The purity of the CD133^+ population thus obtained was 80-95%, as evaluated by flow cytometry. […]

[4] = static bioreactor (VueLife FEP Teflon bag), compared with cells cultured without TEPA

NCCNCCNCCNCCN [TEPA, tetraethylenepentamine]
LTC-CFC numbers (colonogenic potential, CFUs) ([1]; 5 μM TEPA vs control cells grown with cytokines but not TEPA): at least one order of magnitude; also recorded: predominance of CFUs | functional characteristics (colonogenic potential) [1, 4]: superior | fraction of CD34+ cell [2]: greatly enhanced | long-term clonability [2]: greatly enhanced | fold expansion of immature subpopulations of HSC (CD34+/CD38− and CD34+/lin−) ([3]; 5 μM TEPA, three weeks, static bioreactor (culture bag), vs cytokines without TEPA): dramatically increases; also recorded: predominance of undifferentiated CD34^+/CD38^− and CD34^+/lin^− | fraction of self-renewing, undifferentiated cells ([3]; short and long term culture in a static bioreactor, compared with cytokine-only cultures): dramatically increased | population of ex-vivo cultured stem and/or progenitor cells [3, 4]: greatly expanded
